{"source": "patent US20240327359A1", "about": "“3-ISOXAZOLIDINONE COMPOUND, PREPARATION METHOD, HERBICIDAL COMPOSITION AND APPLICATION THEREOF” (QINGDAO KINGAGROOT CHEMICAL COMPOUND CO., LTD., priority 2021, published 2024)", "type_in_all_cases": "in vivo", "key": {"[1]": {"test_system": "cotton", "assay": "Pre-emergence stage, crop damage", "details": "2 weeks", "from_the_text": "(§1) The activity level criteria for plant damage (i.e., growth control rate) are as follows:\n(§2) The above growth control rates are fresh weight control rates.\n(§3) Monocotyledonous and dicotyledonous weed seeds (Descurainia sophia, Capsella bursa-pastoris, Abutilon theophrasti, Galium aparine, Stellaria media, Lithospermum arvense, Rorippa indica, Alopecurus aequalis, Alopecurus japonicus, Eleusine indica, Beckmannia syzigachne, Sclerochloa dura, Phleum paniculatum, Veronica didyma, Bromus japonicus, Aegilops tauschii, Phalaris arundinacea, Amaranthus retroflexus, Chenopodiaceae, Commelina communis, Sonchus arvensis, Convolvulus arvensis, Cirsium setosum, Solanumnigrum, Acalypha australis, Digitaria sanguinalis, Echinochloa crusgalli, Setaria viridis, Setaria glauca, Leptochloa chinensis, Monochoria vaginalis, Sagittaria trifolia, Scirpus juncoides, Cyperus rotundus, Cyperus iria, Cyperus difformis, Fimbristylis, Portulaca oleracea, Xanthium sibiricum, Pharbitis nil, Conyza Canadensis, etc.) and major crop seeds (wheat, corn, rice, soybean, cotton, oilseed rape, millet, sorghum, potato, sesame, ricinus, etc.) were placed in plastic pots filled with soil, then covered with 0.5-2 cm of soil, allowed to grow in a good greenhouse environment. The test plants were treated on the day of sowing. The tested compounds of the present invention were respectively dissolved in acetone, then added with Tween 80, diluted with a certain amount of water to obtain a solution of a certain concentration, and sprayed by a spray tower onto the plants. After the application, the plants were cultured for 2 weeks in the greenhouse, and then the experimental results of the weeding were recorded. The doses of the used compounds were 3, 6, 12, 24, 48 g ai./mu (1 mu=1/15 ha), and the averages were obtained from three replicates."}, "[2]": {"test_system": "peanut", "assay": "Pre-emergence stage, crop damage", "details": "48 g a.i./mu, 2 weeks", "from_the_text": "as §1, §2, §3"}, "[3]": {"test_system": "soy bean", "assay": "Pre-emergence stage, crop damage", "details": "2 weeks", "from_the_text": "as §1, §2, §3"}, "[4]": {"test_system": "wheat", "assay": "Pre-emergence stage, crop damage", "details": "2 weeks", "from_the_text": "as §1, §2, §3"}, "[5]": {"test_system": "spinach, radish, Chinese cabbage, sesame, rape, cucumber, watermelon, melon, pumpkin, cassava, soybean, kidney bean, cowpea, common bean, hyacinth bean, sponge …", "assay": "Field test, crop safety", "details": "applied after planting and pre-emergence at 300 g a.i./ha"}, "[6]": {"test_system": "Galium aparine", "assay": "Activity test of the compositions, post-emergence treatment by foliage spray", "details": "foliage (F), A 16 g a.i./mu", "protocol": "(§4) The desired active ingredient B was purchased from a reagent company or synthesized by a known method. The technical materials were all dissolved in acetone and diluted with an aqueous solution containing 0.10% emulsifier Tween-80 which were to be used immediately after dilution.\n(§5) Weeds were cultivated by a pot culture method. […] Weed seeds with plump and uniform grains were selected, soaked in lukewarm water at 25° C. for 6 hours, and germinated in a 28° C. biochemical incubator (in darkness). The weed seeds that had just germinated were evenly placed on the surface of the soil and then covered with 0.5-1 cm soil according to the sizes of seeds.\n(§6) Each treatment was repeated 4 times. Four pots with 20 weed seeds per pot were treated each time.\n(§7) The agents were used for only once in total in the experiment. In the stage of 1.5-2 leaves, the weeds were thinned out to maintain 10 weeds per pot. Ten weeds were kept in each treatment, then continued to be cultured until Echinochloa crus-galli var. zelayensis reached the stage of 2-3 leaves, Cirsium setosum reached the stage of 5-6 leaves, Galium aparine reached the stage of 3-4 whorl leaves, Amaranthus retroflexus reached the stage of 3-5 leaves, Echinochloa crusgalli, Lolium multiflorum and Digitaria sanguinalis reached the stage of 3 leaves with one leaf not fully expanding for further treatment.\n(§8) The well-cultured test materials were evenly placed on a platform with an area of 0.5 m^2, and solution of agents was sprayed on the stems and leaves thereof by the 3WP-2000-type walking spray tower at a dosage of 450 kg/ha and at a spray pressure of 0.3 MPa. After all the solution was sprayed, the valve was closed. After 30 seconds, the door of the spray tower was opened, and the nutritional bowl was taken out. Then the valve was opened, and the spray tube was cleaned by spraying 50 ml of water. After the treatment, the weeds were routinely cultured in a greenhouse.\n(§9) A method for investigating absolute numbers was employed. Whole seedlings of survival weeds were cut off with a blade along the soil surface, and the fresh weight of the weeds was weighed with an analytical balance. For dead weeds, the fresh weight thereof was zero.\n(§10) The investigation was performed 21 days after the treatment for only once in total."}, "[7]": {"test_system": "Amaranthus retroflexus", "assay": "Activity test of the compositions, post-emergence treatment by foliage spray", "details": "foliage (F)", "protocol": "as §4, §5\n(§11) The culture was carried out in a controllable sunlight greenhouse at 20 to 30° C., in natural light, and with relative humidity of 57% to 72%.\nas §6, §7, §8, §9, §10"}, "[8]": {"test_system": "Cirsium setosum", "assay": "Activity test of the compositions, post-emergence treatment by foliage spray", "details": "foliage (F), A 32 g a.i./mu", "protocol": "as §4, §5, §11, §6, §7, §8, §9, §10"}, "[9]": {"test_system": "Digitaria sanguinalis", "assay": "Activity test of the compositions, post-emergence treatment by foliage spray", "protocol": "as §4, §5, §11, §6, §7, §8, §9, §10"}, "[10]": {"test_system": "Echinochloa crus-galli var. zelayensis", "assay": "Activity test of the compositions, post-emergence treatment by foliage spray", "details": "Echinochloa crusgalli var. zelayensis; foliage (F); A 16 g a.i./mu", "protocol": "as §4, §5, §11, §6, §7, §8, §9, §10"}, "[11]": {"test_system": "Echinochloa crusgalli", "assay": "Activity test of the compositions, post-emergence treatment by foliage spray", "details": "foliage (F), A 16 g a.i./mu", "protocol": "as §4, §5, §11, §6, §7, §8, §9, §10"}, "[12]": {"test_system": "Lolium multiflorum", "assay": "Activity test of the compositions, post-emergence treatment by foliage spray", "details": "foliage (F), A 16 g a.i./mu", "protocol": "as §4, §5, §11, §6, §7, §8, §9, §10"}, "[13]": {"test_system": "weeds", "assay": "Activity test of the compositions, soil sealing treatment", "how_it_was_run": "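Pre-emergence soil spray at 450 kg/ha, 0.3 MPa, applied 72 h after sowing pre-germinated seeds, 20 seeds per pot, 4 pots, 4 repeats; actives in acetone diluted with 0.10% Tween-80. Greenhouse, 20 to 30° C; surviving weed fresh weight measured 21 days after treatment.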"}}, "data": [{"smiles": "CC1(C)CON(Cc2ccc(Cl)cc2Br)C1=O", "note": "[Compound 1]", "values": [{"measurement": "plant damage level (growth control rate) on crop, pre-emergence stage", "setting": "[1]; 12 g a.i./mu", "value": 0}, {"measurement": "plant damage level (growth control rate) on crop, pre-emergence stage", "setting": "[1]; 24 g a.i./mu", "value": 0}, {"measurement": "plant damage level (growth control rate) on crop, pre-emergence stage", "setting": "[2]", "value": 0}, {"measurement": "plant damage level (growth control rate) on crop, pre-emergence stage", "setting": "[3]; 24 g a.i./mu", "value": 0}, {"measurement": "plant damage level (growth control rate) on crop, pre-emergence stage", "setting": "[3]; 48 g a.i./mu", "value": 0}, {"measurement": "plant damage level (growth control rate) on crop, pre-emergence stage", "setting": "[4]; 6 g a.i./mu", "value": 0}, {"measurement": "plant damage level (growth control rate) on crop, pre-emergence stage", "setting": "[4]; 12 g a.i./mu", "value": 0}, {"measurement": "plant damage level (growth control rate) on crop, pre-emergence stage", "setting": "[4]; 24 g a.i./mu", "value": 0}, {"measurement": "crop safety in field test", "setting": "[5]", "value": "safe"}, {"measurement": "Control effect (%) of A applied alone (A)", "setting": "[6]", "value": 55.4, "unit": "%"}, {"measurement": "Control effect (%) of A applied alone (A)", "setting": "[7]; A 8 g a.i./mu", "value": 36.7, "unit": "%"}, {"measurement": "Control effect (%) of A applied alone (A)", "setting": "[7]; A 16 g a.i./mu", "value": 36.7, "unit": "%"}, {"measurement": "Control effect (%) of A applied alone (A)", "setting": "[8]", "value": 64.2, "unit": "%"}, {"measurement": "Control effect (%) of A applied alone (A)", "setting": "[9]; foliage (F), A 16 g a.i./mu", "value": 42.3, "unit": "%"}, {"measurement": "Control effect (%) of A applied alone (A)", "setting": "[9]; foliage treatment (F), A at 16 g a.i./mu, fresh weight inhibition 21 days after treatment", "value": 42.3, "unit": "%"}, {"measurement": "Control effect (%) of A applied alone (A)", "setting": "[10]", "value": 43.6, "unit": "%"}, {"measurement": "Control effect (%) of A applied alone (A)", "setting": "[11]", "value": 46.2, "unit": "%"}, {"measurement": "Control effect (%) of A applied alone (A)", "setting": "[12]", "value": 56.7, "unit": "%"}, {"measurement": "Control effect (%) of A applied alone (A)", "setting": "[13]; Alopecurus japonicus, soil (S), A 8 g a.i./mu", "value": 39.4, "unit": "%"}, {"measurement": "Control effect (%) of A applied alone (A)", "setting": "[13]; Amaranthus retroflexus, soil (S), A 8 g a.i./mu", "value": 37.3, "unit": "%"}, {"measurement": "Control effect (%) of A applied alone (A)", "setting": "[13]; Commelina communis, soil (S), A 8 g a.i./mu", "value": 44.1, "unit": "%"}, {"measurement": "Control effect (%) of A applied alone (A)", "setting": "[13]; Cyperus difformis, soil (S), A 8 g a.i./mu", "value": 34.5, "unit": "%"}, {"measurement": "Control effect (%) of A applied alone (A)", "setting": "[13]; Digitaria sanguinalis, soil (S), A 8 g a.i./mu", "value": 40.3, "unit": "%"}, {"measurement": "Control effect (%) of A applied alone (A)", "setting": "[13]; Echinochloa crusgalli, soil (S), A 8 g a.i./mu", "value": 50.7, "unit": "%"}, {"measurement": "Control effect (%) of A applied alone (A)", "setting": "[13]; Echinochloa crusgalli, soil treatment (S), A at 8 g a.i./mu, fresh weight inhibition 21 days after treatment", "value": 50.7, "unit": "%"}, {"measurement": "Control effect (%) of A applied alone (A)", "setting": "[13]; Galium aparine, soil (S), A 8 g a.i./mu", "value": 37.2, "unit": "%"}, {"measurement": "Control effect (%) of A applied alone (A)", "setting": "[13]; Lolium multiflorum, soil (S), A 8 g a.i./mu", "value": 53.2, "unit": "%"}, {"measurement": "Control effect (%) of A applied alone (A)", "setting": "[13]; Potamogeton distinctus, soil (S), A 8 g a.i./mu", "value": 35.9, "unit": "%"}, {"measurement": "Control effect (%) of A applied alone (A)", "setting": "[13]; Veronica didyma, soil (S), A 8 g a.i./mu", "value": 48.9, "unit": "%"}]}]}
